Structures can show the parent of a compound that is named as a salt.
Experiments:
[1] = Kinetic aqueous solubility by nephelometry; type: physicochemical; conditions: phosphate-buffered saline, aqueous buffer, kinetic from dmso stock, PBS pH 7.4, 1% DMSO, 25°C, logS = decadic logarithm of molar solubility [M]
Protocol: Phosphate-buffered saline pH 7.4 was prepared according to the European Pharmacopeia 10.4 by dissolving 2.38 g sodium monohydrogen phosphate dodecahydrate, 0.19 g potassium dihydrogen phosphate and 8.0 g sodium chloride in demineralised water (to a total volume of 1000 mL). The pH was adjusted to a value of 7.4 with hydrochloric acid. The buffer was filtered through a 0.45 μm membrane filter (Chromafil® Xtra PES-45/25) before use.
The kinetic aqueous solubility was determined by nephelometry. The measurements were performed on the NEPHELOstar Plus, with accompanying software Omega 5.11 and MARS 3.20 (BMG LABTECH, Ortenberg, Germany). Generally, 2 dilution series of 1–2 weighed portions of each substance were measured. First, stock solutions of the compounds were prepared in DMSO. A series of dilutions in DMSO were prepared from one stock solution to obtain at least 3 concentrations below and 3 concentrations above the precipitation point in the measured series. The specific concentrations were usually measured as duplicates.
The 96-well plate (Corning UV transparent flat-bottom 96-well plate, Corning Incorporated, Kennenbunk, ME, USA) was inspected for contamination and scratches and measured without samples prior to the solubility measurement of the compounds. 198 μL of phosphate-buffered saline pH 7.4 was placed in a 96 well plate for each well to be measured. 2 μL of a DMSO solution was added and immediately mixed by moving the pipette plunger. This solution either contained no substance—and served as a blank for the measurement (3 wells)—or the respective DMSO dilution of the substance (2–4 wells). The concentration of the solvent DMSO in each measured solution was 1%. The concentration of the compound corresponds to a 1:100 dilution compared to the respective DMSO dilution. The well plate bottom was cleaned with a lint-free cloth and compressed air and inspected for impurities before measurement. After shaking at 500 rpm for 10 s (double orbital), the measurement was carried out in the nephelometer with the laser intensity set to 80% and beam focus of 2.5 mm at a temperature of 25°C.
The obtained measuring points, relative nephelometric units (RNU) per compound concentration, were used to model two straight lines: one straight line with constant low readings and slope → 0 characterises the concentration range where no precipitation has taken place yet; The other straight line has a steep slope and increase of the RNU per concentration and characterises the concentrations at which precipitation takes place in the respective sample vessels.
The evaluation was carried out by calculating the two straight lines and their point of intersection. Outliers and values in a saturation range for the kick-off curve (usually >800 kRNU) were not used to create the straight lines and are listed separately in the evaluation file. […] The x-value of the intersection of the two straight lines represents the kinetic solubility. The results of two dilution series are additionally indicated as range (in brackets). For measurements of 3 or more series, a mean value with standard deviation is provided. The logS value describes the decadic logarithm of the molar solubility: logS (molar solubility [M]).

[2] = biological target: trypanothione synthetase of L. infantum (LiTryS) (Leishmania infantum, UniProt A4I2Z3); assay: TryS activity screening assay on recombinant LiTryS; type: biochemical; conditions: for activity at 30 µM: read-out: LiTryS activity [% at 30 μM]; for LiTryS activity [% at 30 μM]: recombinant TryS, % activity at 30 μM compound, errors 2 SD
Protocol: (§1) TryS from different trypanosomatids was produced in recombinant form with an N-terminal His-tag. The constructs pET-15b TbTryS and pET-28c(+)LiTryS were used to express TryS of T. b. brucei 427 (MITat1.4, GenBank accession protein id CAC87573.1), and L. infantum JPCM5 (GenBank accession protein id CAM69145.1). E. coli strain BL21 (DE3) served as the expression host. For TbTryS, the cells were cultured in a medium based in Terrific Broth and induction with isopropyl 1-thio-β-D-galactopyranoside (IPTG), while for LiTryS, the cells were cultured in ZYM-5052 auto-induction medium. For a detailed description of the expression, see Benítez et al.. The purification was performed by immobilised metal affinity chromatography in a HisTrap Fast Flow column (GE Healthcare) followed by size exclusion chromatography. […] The fractions containing recombinant TryS with ≥95% purity were pooled and concentrated to >10 mg protein/mL using a 10 kDa cut-off Amicon filter (Millipore, Billerica, CA). Glycerol was added at a final concentration of 40% (v/v). The samples were stored at -80°C. Enzyme purity and activity were assessed by SDS-PAGE (12%) under reducing conditions and by the end-point TryS assay (see TryS activity screening assay), respectively. Protein concentration was determined using the bicinchoninic acid assay with bovine serum albumin as standard. The protocols yielded 25–30 mg TbTryS or LiTryS per litre of culture medium and homogeneous specific activity.
(§2) For all TryS, ATP was used at 150 μM because of a high background signal at higher concentrations and Spd fixed at 2 mM, in agreement with the intracellular levels calculated from data reported in the literature for trypanosomatids. GSH was adjusted to 0.05 and 0.25 mM for TbTryS and LiTryS, respectively, to avoid substrate inhibition or to approach physiological concentrations. […] Microtiter plate wells were loaded with 5 μL of the test compound, DMSO (reaction control) or a TryS specific inhibitor (inhibition control) and 40 μL of MM solution. The reactions were then started by adding 5 μL of TryS (2 and 3*10^−5 μmol*min^-1*mL^-1 for LiTryS and TbTryS, respectively) and stopped after 15 min with 200 μL BIOMOL® GREEN reagent (Enzo Life Sciences). The compounds used as inhibition control were added at concentrations that inhibited 50% TryS activity: 30 μM and 150 nM MOL2008 for TbTryS and LiTryS, respectively. Blanks were prepared for each condition by adding 5 μL of screening reaction buffer instead of the enzyme. The TryS activity is calculated as follows: TrySactivity%=A650nmCi-A650nmCiB/A650nmE-A650nmEB*100%
(§3) A650 nm Ci is the mean absorbance at 650 nm for the reaction test with compound I (Ci), A650 nm CiB is the mean absorbance at 650 nm for the blank control with compound I (CiB), A650 nm E is the mean absorbance at 650 nm for the reaction control with DMSO (E) and A650 nm EB is the mean absorbance at 650 nm for the blank control with DMSO (EB). The errors were expressed as 2 standard deviations (SD), SD estimated as σ^n−1.

[3] = test system: trypanothione synthetase of T. b. brucei (TbTryS); assay: TryS activity screening assay on recombinant TbTryS; type: biochemical; conditions: % activity at 30 μM compound, errors 2 SD
Protocol: as §1, §2, §3

[4] = test system: bloodstream form of T. b. brucei strain 427; assay: Viability assay for T. b. brucei (whole parasite, bioluminescence); type: cell-based; conditions: 24 h; for T. b. brucei (BS) proliferation [% at 10 μM]: 10 μM compound
Protocol: Viability assay for T. b. brucei. The bloodstream form of the monomorphic T. b. brucei strain 427, cell line 5141313, constitutively and stably expressing an ectopic copy of the Photinus pyralis red-shifted luciferase, was cultured in vitro with HMI-9 medium, supplemented with 10% fetal bovine serum, 10 U/mL penicillin (Gibco), 10 μg/mL streptomycin (Gibco), 0.2 μg/mL bleomycin (Jena Bioscience), 4 μg/mL G418 disulfate salt (Sigma-Aldrich) and 0.2 μg/mL puromycin (Invitrogen), inside a humidified incubator (Thermo Fisher Scientific) with controlled temperature (37°C) and CO2 (5%) in a 25 or 75 cm^2 vented-cap culture-flask. The anti-trypanosomal activity of compounds was evaluated in a 96-well culture plate containing 2.2 μL/well DMSO (negative control) or compounds dissolved in DMSO (1% final concentration), and 220 μL/well of a suspension of 1 × 10^5 parasites/mL. The plates were incubated at 37°C and 5% CO2 for 24 h. Next, each well was transferred to a 96-well black plate, and 20 μL of a solution containing d-luciferin (1.5 mg/mL in PBS glucose 1% w/v) and Triton X-100 (0.05% v/v) was added. Bioluminescence signal was measured in a LUMIstar OPTIMA Microplate luminometer using the following settings: 10 s shaking, 5 s/well acquisition, 0.2 s measurement delay, maximum gain, and 37°C. For the bioluminescence assay, parasite viability was calculated according to the following formula: parasiteviability%=BLcpd-BLblank/BLneg-BLblank*100%
BL refers to the mean of bioluminescence signal corresponding to the tested compound (cpd), the blank (blank, complete media containing 1% v/v DMSO), or the negative control (neg, parasites treated with 1% v/v DMSO). EC50 values were determined from concentration-response curves fitted to a four-parameter sigmoid equation using the GraphPad Prism software (version 6.0). All errors are expressed as one SD, estimated as σ^n-1. For a detailed explanation of the protocol, see Dibello et al..

[5] = test system: L. infantum amastigotes (intracellular, in J774.A1 macrophages); assay: Viability assay for L. infantum amastigotes; type: cell-based; conditions: Leishmania infantum, J774.A1, 24 h, read-out: L. infantum amastigote viability [% at 20 μM]
Protocol: Viability assay for L. infantum amastigotes. L. infantum promastigotes from the reference strain MHOM/MA/67/ITMAP263, stably transfected with a vector encoding a red-shifted luciferase gene (RE9HLUC; Branchini et al.; Benítez et al.) were grown in fresh complete RPMI medium (RPMI basic medium containing 25 mM HEPES, 10% v/v iFBS, 100 U/mL penicillin, 100 μg/mL streptomycin and 15 μg/mL hygromycin B) at 28°C in sealed culture flasks. Metacyclic promastigotes were obtained by a negative selection procedure using peanut agglutinin and used to infect murine macrophages (cell line J774.A1) at a 1:10 ratio for macrophages (5×10^6 cells): parasites (5×10^7 cells). 200 μL of this suspension was added per well to a 96-well culture microplate, which was then incubated at 37°C for 24 h in a 5% CO2/95% air atmosphere incubator. […] The culture microplate was incubated in the CO2 incubator for additional 24 h. Next, the supernatant was removed and the microplate wells were washed with pre-warmed PBS (200 μL). […] All conditions were tested in triplicates and the percentage amastigote viability was calculated as described for infective T. b. brucei, with errors expressed as one SD, estimated as σ^n-1.
A macrophage cell density correction factor based on the incorporation of propidium iodide was calculated and applied to normalise amastigote viability related to host cell density in the well. For a detailed explanation of the protocol, see Benítez et al..

Sequence of trypanothione synthetase of L. infantum (LiTryS) (A4I2Z3 entry or part of it): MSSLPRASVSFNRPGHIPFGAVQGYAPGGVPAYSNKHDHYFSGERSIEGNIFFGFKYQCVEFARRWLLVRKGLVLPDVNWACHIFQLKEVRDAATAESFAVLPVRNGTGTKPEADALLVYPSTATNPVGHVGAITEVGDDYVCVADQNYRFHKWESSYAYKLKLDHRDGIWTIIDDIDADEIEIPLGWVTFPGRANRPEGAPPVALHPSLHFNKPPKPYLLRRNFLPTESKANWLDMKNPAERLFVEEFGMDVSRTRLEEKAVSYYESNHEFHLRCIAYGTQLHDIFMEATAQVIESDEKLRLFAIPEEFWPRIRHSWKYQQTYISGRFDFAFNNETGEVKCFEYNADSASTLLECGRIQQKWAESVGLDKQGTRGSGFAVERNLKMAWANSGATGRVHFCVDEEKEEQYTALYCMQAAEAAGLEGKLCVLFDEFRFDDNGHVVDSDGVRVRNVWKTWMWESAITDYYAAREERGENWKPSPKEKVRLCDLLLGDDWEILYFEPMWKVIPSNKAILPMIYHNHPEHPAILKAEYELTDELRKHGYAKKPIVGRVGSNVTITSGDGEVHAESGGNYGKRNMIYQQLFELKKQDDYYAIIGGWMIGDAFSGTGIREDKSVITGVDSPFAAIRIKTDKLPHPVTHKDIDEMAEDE

| Structure (SMILES) | solubility kinetic at 10 s [1] [M] | activity at 30 µM [2] [%] | TbTryS activity [% at 30 μM] [3] [%] | T. b. brucei (BS) proliferation [% at 10 μM] [4] [%] | LiTryS activity [% at 30 μM] [2] | viability at 20 µM [5] [%] | EC50 ([4]; Trypanosoma brucei, read-out: T. b. brucei (BS) [EC50) [µM] |
| --- | --- | --- | --- | --- | --- | --- | --- |
| Cl.O=C(CN1C(=O)CCCc2ccccc21)N1CCNCC1 [2q, 1-[2-Oxo-2-(piperazin-1-yl)ethyl]-1,3,4,5-tetrahydro-2H-benzo[b]azepin-2-one hydrochloride] | > 0.00398 | 113 ± 10.7 |  |  |  |  |  |
| O=C(O)CN1C(=O)Cc2c([nH]c3ccc(C(F)(F)F)cc23)-c2ccc(Cl)cc21 [9c, 2-(3-Chloro-6-oxo-9-trifluoromethyl-7,12-dihydrobenzo[2,3]azepino[4,5-b]indol-5(6H)-yl)acetic acid] |  | 62.4 ± 6.4 | 110.2 ± 11.5 | 61.6 ± 10.2 | moderate inhibitory activity |  |  |
| CON=C1CCC(=O)N(CC(=O)NCCN2CCNCC2)c2ccccc21 (mixture of isomers) [5d, (E/Z)-2-[5-(Methoxyimino)-2-oxo-2,3,4,5-tetrahydro-1H-benzo[b]azepin-1-yl]-N-[2-(piperazin-1-yl)ethyl]acetamide dihydrochloride] | > 0.001 | 97.5 ± 4.7 |  |  |  | 74.9 ± 11.2 |  |
| O=C(O)CN1C(=O)Cc2c([nH]c3ccc(Cl)cc23)-c2ccc(Cl)cc21 [9b, 2-(3,9-Dichloro-6-oxo-7,12-dihydrobenzo[2,3]azepino[4,5-b]indol-5(6H)-yl)acetic acid] |  | 90.2 ± 6.7 | 104.0 ± 10.1 | 56.4 ± 3.8 |  |  |  |
| O=C(O)CN1C(=O)Cc2c([nH]c3ccc(I)cc23)-c2ccc(Cl)cc21 [9a, 2-(3-Chloro-9-iodo-6-oxo-7,12-dihydrobenzo[2,3]azepino[4,5-b]indol-5(6H)-yl)acetic acid] |  | 67.2 ± 3.9 | 102.9 ± 6.7 | 24.2 ± 3.4 | moderate inhibitory activity |  | 10.5 ± 1.3 |

From article PMC10688702, “The indole motif is essential for the antitrypanosomal activity of N^5-substituted paullones” (PLOS ONE, 2023)
